Measured values published in patent US20210255193A1, “LYSINE REACTIVE PROBES AND USES THEREOF” (The Scripps Research Institute, priority 2017, published 2021).

What was measured:
Assay in all cases: competitive isoTOP-ABPP
Type in all cases: binding
[1] = molecular target: T1, AKR1C3 Aldo-keto reductase family 1 member C3 (Homo sapiens, UniProt P42330); settings: for isoTOP-ABPP ratio (R) at liganded lysine P42330_K270: sol, 231
T1 construct: isoTOP-ABPP experiments performed in cell lysates (in vitro); endogenous in cells; host or cells: soluble proteome of human cancer cell lines (MDA-MB-231; Ramos and Jurkat also prepared)
T1 sequence (P42330 1-323): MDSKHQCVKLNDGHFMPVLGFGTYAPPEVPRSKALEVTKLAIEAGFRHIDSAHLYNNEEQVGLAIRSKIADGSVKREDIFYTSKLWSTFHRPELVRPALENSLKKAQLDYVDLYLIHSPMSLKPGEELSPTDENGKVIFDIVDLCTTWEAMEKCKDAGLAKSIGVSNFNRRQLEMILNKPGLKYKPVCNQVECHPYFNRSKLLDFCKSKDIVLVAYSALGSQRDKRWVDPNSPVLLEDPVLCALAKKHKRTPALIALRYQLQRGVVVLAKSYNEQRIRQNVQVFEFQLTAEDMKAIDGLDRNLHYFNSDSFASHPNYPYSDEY
Procedure, shortened: (§1)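 Cell lysate treated in vitro with fragments (50 μM activated esters, 100 μM guanidinylating agents) or DMSO, labelled 1 h at ambient temperature with 0.1 mM STP-alkyne, CuAAC-tagged with light/heavy TEV tags, analysed by MS. R = DMSO/compound MS1 peak-area ratio; lysines with R≥4 called liganded.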

[2] = molecular target: T2, ARL6IP1 ADP-ribosylation factor-like protein 6-interacting (Homo sapiens, UniProt Q15041); settings: for R value (DMSO/fragment) for probe 1 labeling: Q15041_K188; for isoTOP-ABPP ratio (R) at liganded lysine Q15041_K188: sol, 231
T2 construct: isoTOP-ABPP experiments performed in cell lysates (in vitro); endogenous in cells; host or cells: soluble proteome of human cancer cell lines (MDA-MB-231; Ramos and Jurkat also prepared)
T2 sequence (Q15041 whole entry, the tested form may be a part): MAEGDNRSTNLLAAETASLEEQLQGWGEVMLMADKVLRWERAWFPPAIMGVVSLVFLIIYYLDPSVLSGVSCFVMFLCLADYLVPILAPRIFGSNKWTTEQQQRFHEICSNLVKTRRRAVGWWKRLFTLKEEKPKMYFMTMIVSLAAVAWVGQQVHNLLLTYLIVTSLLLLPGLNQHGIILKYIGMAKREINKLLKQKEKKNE
Procedure, shortened: as §1

[3] = molecular target: T3, NT5DC1 5-nucleotidase domain-containing protein 1 (Homo sapiens, UniProt Q5TFE4); settings: for R value (DMSO/fragment) for probe 1 labeling: Q5TFE4_K123; for isoTOP-ABPP ratio (R) at liganded lysine Q5TFE4_K123: sol, 231
T3 construct: isoTOP-ABPP experiments performed in cell lysates (in vitro); endogenous in cells; host or cells: soluble proteome of human cancer cell lines (MDA-MB-231; Ramos and Jurkat also prepared)
T3 sequence (Q5TFE4 1-455): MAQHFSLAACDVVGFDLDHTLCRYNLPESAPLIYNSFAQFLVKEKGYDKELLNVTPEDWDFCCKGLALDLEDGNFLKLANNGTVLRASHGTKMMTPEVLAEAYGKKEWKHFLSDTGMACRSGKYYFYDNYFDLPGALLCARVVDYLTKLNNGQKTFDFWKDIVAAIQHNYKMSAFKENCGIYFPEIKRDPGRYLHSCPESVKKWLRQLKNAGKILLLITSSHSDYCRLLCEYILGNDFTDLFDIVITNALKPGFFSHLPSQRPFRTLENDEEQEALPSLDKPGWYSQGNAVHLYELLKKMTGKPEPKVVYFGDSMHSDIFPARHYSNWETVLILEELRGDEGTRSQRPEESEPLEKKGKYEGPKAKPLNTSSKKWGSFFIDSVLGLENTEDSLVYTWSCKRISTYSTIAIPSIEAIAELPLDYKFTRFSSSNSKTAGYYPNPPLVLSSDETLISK
Procedure, shortened: as §1

[4] = molecular target: T4, RPS10 40S ribosomal protein S10 (Homo sapiens, UniProt P46783); settings: for R value (DMSO/fragment) for probe 1 labeling: P46783_K139; for isoTOP-ABPP ratio (R) at liganded lysine P46783_K139: sol, 231
T4 construct: isoTOP-ABPP experiments performed in cell lysates (in vitro); endogenous in cells; host or cells: soluble proteome of human cancer cell lines (MDA-MB-231; Ramos and Jurkat also prepared)
Procedure, shortened: as §1

[5] = molecular target: T5, TSTA3 GDP-L-fucose synthase (Homo sapiens, UniProt Q13630); settings: for isoTOP-ABPP ratio (R) at liganded lysine Q13630_K108: sol, 231
T5 construct: isoTOP-ABPP experiments performed in cell lysates (in vitro); endogenous in cells; host or cells: soluble proteome of human cancer cell lines (MDA-MB-231, Ramos, Jurkat)
T5 sequence (Q13630 whole entry): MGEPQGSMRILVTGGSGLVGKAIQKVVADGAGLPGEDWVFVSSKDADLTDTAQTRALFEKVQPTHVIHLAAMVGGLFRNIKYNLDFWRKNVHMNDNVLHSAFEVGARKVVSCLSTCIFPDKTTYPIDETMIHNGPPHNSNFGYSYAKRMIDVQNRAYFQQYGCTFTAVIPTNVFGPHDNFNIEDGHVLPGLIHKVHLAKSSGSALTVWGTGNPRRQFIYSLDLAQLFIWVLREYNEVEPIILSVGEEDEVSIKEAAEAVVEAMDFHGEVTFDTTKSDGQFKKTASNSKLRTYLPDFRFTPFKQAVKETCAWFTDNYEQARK
Procedure, shortened: as §1

In the case of `O=C(Oc1c(F)c(F)c(F)c(F)c1F)C(c1ccccc1)c1ccccc1` [fragment 20, Pentafluorophenyl 2,2-diphenylacetate], the “R value (DMSO/fragment) for probe 1 labeling” value (shortened to “R value (DMSO/fragment)”) ([1]; P42330_K270, 50 uM, 231 sol, in vitro) is reported as 1.4, the “R value (DMSO/fragment)” value ([2]; 50 uM, 231 sol, in vitro) is reported as 1.8 and the “R value (DMSO/fragment)” value ([3]; 50 uM, 231 sol, in vitro) is reported as 1.0. The “R value (DMSO/fragment)” value ([4]; 50 uM, 231 sol, in vitro) was 0.6.
`O=C(Oc1c(F)c(F)c(F)c(F)c1F)c1cc(C(F)(F)F)cc(C(F)(F)F)c1` [fragment 21, Pentafluorophenyl 3,5-bis(trifluoromethyl)benzoate] was tested, and the “R value (DMSO/fragment)” value ([2]; 50 uM, 231 sol, in vitro) was 3.9, the “R value (DMSO/fragment)” value ([3]; 50 uM, 231 sol, in vitro) was 1.2 and the “R value (DMSO/fragment)” value ([4]; 50 uM, 231 sol, in vitro) was 0.5. The “R value (DMSO/fragment)” value ([5]; Q13630_K108, 50 uM, 231 sol, in vitro) was 1.0.
For `O=C(Oc1c(F)c(F)c(F)c(F)c1F)C1CCN(C(=O)OCc2ccccc2)CC1` [fragment 24, 1-Benzyl 4-(pentafluorophenyl) piperidine-1,4-dicarboxylate], the “isoTOP-ABPP reactivity ratio at lysine P42330_K270” value ([1]; 50 uM, 231 sol, in vitro) was 4.2, the “isoTOP-ABPP reactivity ratio at lysine Q15041_K188” value ([2]; 50 uM, 231 sol, in vitro) was 2.4 and the “isoTOP-ABPP reactivity ratio at lysine Q5TFE4_K123” value ([3]; 50 uM, 231 sol, in vitro) was 1.1. For the same compound, the “isoTOP-ABPP reactivity ratio at lysine P46783_K139” value ([4]; 50 uM, 231 sol, in vitro) was 1.2 and the “isoTOP-ABPP reactivity ratio at lysine Q13630_K108” value ([5]; 50 uM, 231 sol, in vitro) was 0.6.
For `O=C(CCc1coc2cc(F)ccc2c1=O)Oc1ccc([N+](=O)[O-])cc1[N+](=O)[O-]` [fragment 36, 2,4-Dinitrophenyl 3-(7-fluoro-4-oxo-4H-chromen-3-yl)propanoate], the “isoTOP-ABPP ratio (R) at liganded lysine P42330_K270” value ([1]; 50 uM, in vitro) was 0.6, the “isoTOP-ABPP ratio (R) at liganded lysine Q15041_K188” value ([2]; 50 uM, in vitro) was 1.6 and the “isoTOP-ABPP ratio (R) at liganded lysine Q5TFE4_K123” value ([3]; 50 uM, in vitro) was 20.0. The “isoTOP-ABPP ratio (R) at liganded lysine P46783_K139” value ([4]; 50 uM, in vitro) was 0.7.
For `O=C(Oc1ccc([N+](=O)[O-])cc1[N+](=O)[O-])c1ccc(-c2ccccc2)cc1` [fragment 37, 2,4-Dinitrophenyl [1,1′-biphenyl]-4-carboxylate], the “isoTOP-ABPP ratio (R) at liganded lysine P42330_K270” value ([1]; 50 uM, in vitro) was 0.8, the “isoTOP-ABPP ratio (R) at liganded lysine Q15041_K188” value ([2]; 50 uM, in vitro) was 1.8 and the “isoTOP-ABPP ratio (R) at liganded lysine Q5TFE4_K123” value ([3]; 50 uM, in vitro) was 1.8. For the same compound, the “isoTOP-ABPP ratio (R) at liganded lysine P46783_K139” value ([4]; 50 uM, in vitro) was 0.6 and the “isoTOP-ABPP ratio (R) at liganded lysine Q13630_K108” value ([5]; 50 uM, in vitro) was 2.9.
With `O=C(Oc1ccc([N+](=O)[O-])cc1[N+](=O)[O-])C(c1ccccc1)(c1ccccc1)c1ccccc1` [fragment 42, 2,4-Dinitrophenyl 2,2,2-triphenylacetate] the “isoTOP-ABPP ratio (R) at liganded lysine P42330_K270” value ([1]; 50 uM, in vitro) was 0.9, the “isoTOP-ABPP ratio (R) at liganded lysine Q15041_K188” value ([2]; 50 uM, in vitro) was 1.1 and the “isoTOP-ABPP ratio (R) at liganded lysine Q5TFE4_K123” value ([3]; 50 uM, in vitro) was 0.6. For the same compound, the “isoTOP-ABPP ratio (R) at liganded lysine P46783_K139” value ([4]; 50 uM, in vitro) was 1.0 and the “isoTOP-ABPP ratio (R) at liganded lysine Q13630_K108” value ([5]; 50 uM, in vitro) was 1.0.
With `CC(C)(C)OC(=O)N=C(NC(=O)OC(C)(C)C)n1cccn1` [fragment 50, reference compound] the “isoTOP-ABPP ratio, lysine P42330_K270” value ([1]; 100 uM_231_sol_in vitro, possible other lysine P52895_K270, P17516_K270, Q04828_K270) was 0.7, the “isoTOP-ABPP ratio, lysine Q15041_K188” value ([2]; 100 uM_231_sol_in vitro) was 3.4 and the “isoTOP-ABPP ratio, lysine Q5TFE4_K123” value ([3]; 100 uM_231_sol_in vitro) was 1.1. For the same compound, the “isoTOP-ABPP ratio, lysine P46783_K139” value ([4]; 100 uM_231_sol_in vitro) was 1.1 and the “isoTOP-ABPP ratio, lysine Q13630_K108” value ([5]; 100 uM_231_sol_in vitro) was 1.0.
